Experimental data published in patent publication US5220042A, “1,4-benzoquinone derivatives and benzene derivatives, and process for preparing the same” (priority 1984, dated 1993).
Like-named read-outs stand apart in the source and are kept apart here.

Assays:
[1] = system: SRS-A release from lung fragments; assay: Inhibition of SRS-A release from sensitized guinea pig lung fragments; type: cell-based, guinea pig (Hartley strain); conditions: Cavia porcellus
Procedure, shortened: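 Lung fragments from ovalbumin-sensitized male Hartley guinea pigs were preincubated 5 min at 37 °C in Tyrode's, given compound in DMSO for 5 min, then challenged with ovalbumin for 10 min. Released histamine was bioassayed by guinea pig ileum contraction at 30 s. SRS-A was read at 2 min with 10^-6 M pyrilamine against a crude SRS-A standard curve.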

[2] = system: SRS-A release on anaphylaxis in abdominal cavity; assay: SRS-A releasing inhibition test on anaphylaxis in abdominal cavity of rats; type: in vivo, rat (Sprague-Dawley strain); conditions: oral, 3 hours before anaphylaxis; dose not given
Protocol: SRS-A and histamine releasing inhibition test on anaphylaxis in abdominal cavity of rats.
Male or female rats (Sprague-Dawley strain, delivered from Charles River, Japan Ltd., Tokyo) of 6-7 week age were used as the test animals. The test animals were devided into a group consisting of 6 animals in one group depending on their body weight. The animals were fasted overnight. The test was conducted by a method according to P. T. Orange et al.: "J. Immunol., Vol. 105", pages 1087-1095 (1970).
1 Milliliter each of twofold diluted anti-ovalbumin serm of rat was intraperitoneally injected to each of the test animal so as to have the rat sensitized. 2 Hours after the sensitization, 5 ml of Tyrode's solution containing 2 mg of ovalbumin and 250 micrograms of heparin sodium was intraperitoneally administered to the test animal to cause anaphylaxis. 5 Minutes after, the test animal was stunned by the blow on the head and was exsanguinated and killed by cervical incision. Additional 5 minutes later, the abdominal fluid was collected from the opening of the abdomen. The fluid collected was centrifuged at 4° C., first at 800 rpm, then at 2,500 rpm and the supernatant was collected, and stored at -80° C. until the bioassay was conducted. […]
The amount of SRS-A and histamine contained in the collected abdominal fluid was measured by a method similar to that employed in Pharmacological test-2.
Bio-assay of the collected abdominal fluid was conducted by using ileum of guinea pig which was treated with atropine. […] The isotonic contraction of the piece of the ileum was measured at 0.5 g of load by using an isotonic transducer "TD-112S" (manufactured by Nihon Koden Co., Ltd.). The measurements were recorded on an ink-writing recorder.
The amount of SRS-A was measured by using the value of contraction shown after the addition of 0.2-0.5 ml of the collected fluid in the presence of 10^-7 M of pyrilamine (antihistaminic agent), said value of the contraction was calculated as contraction activity caused by 5 ng of histamine. […]

[3] = Table 2, dose 3 μM, read-out: Inhibition ratio (%) SRS-A
[4] = Table 2, dose 30 μM, read-out: Inhibition ratio (%) SRS-A
[5] = Table 2B, 3 μM, read-out: Inhibitory activities on SRS-A (%)
[6] = Table 2B, 30 μM, read-out: Inhibitory activities on SRS-A (%)

Structure (SMILES) | inhibition at 3 µM [1, 3] [%] | inhibition at 30 µM [1, 4] [%] | inhibition at 3 µM [1, 5] [%] | inhibition at 30 µM [1, 6] [%] | Inhibitory rate (%) SRS-A [2] [%]
COC1=CC(=O)C(OC)=C(CCCCCC#CCCCCCC2=C(OC)C(=O)C=C(OC)C2=O)C1=O [Test Compound No. 16, 2,2'-(6-Dodecynylene)bis(3,6-dimethoxy-1,4-benzoquinone)] | 23.4 | 43.9 | 23.4 | 43.9 | 15.5
COC1=CC(=O)C(OC)=C(CCCCCC2=C(OC)C(=O)C=C(OC)C2=O)C1=O [Test Compound No. 9, 2,2'-Pentamethylenebis(3,6-dimethoxy-1,4-benzoquinone)] | 50.3 | > 94.8 | 50.3 | 94.2 | 4.9
COC1=CC(=O)C(OC)=C(CCCCCCCCCC2=C(OC)C(=O)C=C(OC)C2=O)C1=O [Test Compound No. 13, 2,2'-Nonamethylenebis(3,6-dimethoxy-1,4-benzoquinone)] | 22.4 | 43.9 | 22.4 | 43.9 | 25.8
